The test system of data set [1] is FLT3. The data set is described as follows: FLT3 Enzymatic Assay. The following applies: ratio FLT3 IC50 / JH2 V617F binding IC50. In kind it is biochemical. The procedure:
(§1) The kinase assays were carried out at room temperature in assay buffer (HEPES 50 mM, pH 7.0, NaN3 0.02%, BSA 0.01%, Orthovanadate 0.1 mM, DTT 1 mM, MgCl2 10 mM) in a final volume of 10 μL. Testing compounds were prepared by serial dilution in DMSO and transferred to the plate wells by ECHO liquid handler (Labcyte) with 0.5% DMSO in the final assay. […]. Reactions were initiated by the addition of 5 μL ATP in assay buffer. The final 10 μL kinase reaction consists of 0.011 nM FLT3, 1 mM ATP, 500 nM TK Substrate-biotin and SEB reagent 62.5 nM in assay buffer. […] The plates were then sealed and centrifuged at 1800 rpm for 2 minutes. After 60 minutes incubation at room temperature, the product activity was determined by measuring the fluorescence at 620 nm and 665 nm on Pherastar microplate reader (BMG Labtech). A ratio is calculated (665/620 nm) for each well. Wells with DMSO only were served as the positive controls and wells containing no ATP were used as negative controls. IC50 determination was performed by fitting the curve of percent control activity versus the log of the compound concentration using the GraphPad Prism 7.0 software.

Data set [2] concerns the target T1, FLT3 (Homo sapiens, UniProt P36888).
T1 sequence (P36888 27-993): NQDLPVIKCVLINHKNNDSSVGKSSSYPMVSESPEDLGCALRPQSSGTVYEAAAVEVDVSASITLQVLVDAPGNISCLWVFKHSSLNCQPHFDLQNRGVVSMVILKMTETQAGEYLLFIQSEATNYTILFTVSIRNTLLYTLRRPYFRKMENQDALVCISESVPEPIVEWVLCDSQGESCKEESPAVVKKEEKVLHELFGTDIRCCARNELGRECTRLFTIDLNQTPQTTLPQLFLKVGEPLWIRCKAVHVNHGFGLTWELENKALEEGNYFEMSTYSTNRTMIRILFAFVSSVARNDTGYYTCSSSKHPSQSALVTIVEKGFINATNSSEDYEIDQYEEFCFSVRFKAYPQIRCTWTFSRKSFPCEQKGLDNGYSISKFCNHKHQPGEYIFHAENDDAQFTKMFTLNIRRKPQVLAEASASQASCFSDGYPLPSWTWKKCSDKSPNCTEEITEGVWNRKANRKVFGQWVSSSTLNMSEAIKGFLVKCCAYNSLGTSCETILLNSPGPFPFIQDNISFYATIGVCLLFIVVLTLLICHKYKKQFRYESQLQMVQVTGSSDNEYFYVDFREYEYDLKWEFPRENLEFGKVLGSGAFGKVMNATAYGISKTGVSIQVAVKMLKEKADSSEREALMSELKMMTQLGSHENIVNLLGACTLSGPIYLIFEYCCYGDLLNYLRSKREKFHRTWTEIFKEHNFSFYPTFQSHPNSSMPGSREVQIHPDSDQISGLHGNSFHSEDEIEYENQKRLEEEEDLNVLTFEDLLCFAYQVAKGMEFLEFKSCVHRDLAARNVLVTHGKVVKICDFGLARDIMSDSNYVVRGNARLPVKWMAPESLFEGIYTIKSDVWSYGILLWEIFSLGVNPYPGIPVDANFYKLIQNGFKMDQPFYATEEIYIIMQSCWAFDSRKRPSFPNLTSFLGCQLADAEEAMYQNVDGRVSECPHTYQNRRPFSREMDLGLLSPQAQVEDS
Nature of the data set: FLT3 Enzymatic Assay. In kind it is biochemical. The following applies: HTRF kinase assay, 1 mM ATP. The procedure: as §1

Data set [3] has as its system KIT. Nature of the data set: KIT Enzymatic Assay. In kind it is biochemical. To be noted: ratio KIT IC50 / JH2 V617F binding IC50. The method, then:
as §1, with “0.12” for “0.011”, “KIT,” for “FLT3,”

Data set [4] can be described thus: In Vitro Intrinsic Clearance. In kind it is in vitro ADME. To be noted: human liver microsomes, 1 μM compound, NADPH, scaled to human. The method, then: For in vitro metabolic stability experiments, test compounds were incubated with human liver microsomes at 37° C. The incubation mixture contained test compounds (1 μM), NADPH (2 mM), and human liver microsomes ([…]) in 100 mM phosphate buffer (pH 7.4). The mixture was pre-incubated for 2 min at 37° C. before the addition of NADPH. Reactions were commenced upon the addition of NADPH and quenched with ice-cold methanol at 0, 10, 20, and 30 min. Terminated incubation mixtures were analyzed using LC-MS/MS system. The analytical system consisted of a Shimadzu LC-30AD binary pump system and SIL-30AC autosampler (Shimadzu Scientific Instruments, Columbia, MD) coupled with a Sciex Triple Quad 6500+mass spectrometer from Applied Biosystems (Foster City, CA). […] Mobile phase A consisted of 0.1% formic acid in water, and mobile phase B consisted of 0.1% formic acid in acetonirile. The total LC-MS/MS runtime was 2.75 minutes with a flow rate of 0.75 mL/min. Peak area integrations and peak area ratio calculations were performed using Analyst software (version 1.6.3) from Applied Biosystems.
The in vitro intrinsic clearance, CLint, in vitro, was calculated from the t1/2 of test compound disappearance as CLint, in vitro=(0.693/t1/2)×(1/Cprotein), where Cprotein is the protein concentration during the incubation, and t1/2 was determined by the slope (k) of the log-linear regression analysis of the concentration versus time profiles; thus, t1/2ln2/k. The CLint, in vitro values were scaled to the in vivo values for human by using physiologically based scaling factors, hepatic microsomal protein concentrations (45 mg protein/g liver), and liver weights (21 g/kg body weight). The equation CLint=CLint, in vitro×(mg protein/g liver weight)×(g liver weight/kg body weight) was used. The in vivo hepatic clearance (CLH) was then calculated by using CLint and hepatic blood flow, Q (20 mL·min^−1kg^−1 in humans) in the well-stirred liver model disregarding all binding from CLH (Q×CLint)/(Q+CLint). The hepatic extraction ratio was calculated as CLH divided by Q.

For data set [5], the target named is KIT (Homo sapiens, UniProt P10721). The data set is described as follows: KIT Enzymatic Assay. To be noted: HTRF kinase assay, 1 mM ATP. In kind it is biochemical. The procedure:
as §1, with “0.12” for “0.011”, “KIT,” for “FLT3,”

KIT (Homo sapiens, UniProt P10721), sequence (P10721 26-976, species assumed): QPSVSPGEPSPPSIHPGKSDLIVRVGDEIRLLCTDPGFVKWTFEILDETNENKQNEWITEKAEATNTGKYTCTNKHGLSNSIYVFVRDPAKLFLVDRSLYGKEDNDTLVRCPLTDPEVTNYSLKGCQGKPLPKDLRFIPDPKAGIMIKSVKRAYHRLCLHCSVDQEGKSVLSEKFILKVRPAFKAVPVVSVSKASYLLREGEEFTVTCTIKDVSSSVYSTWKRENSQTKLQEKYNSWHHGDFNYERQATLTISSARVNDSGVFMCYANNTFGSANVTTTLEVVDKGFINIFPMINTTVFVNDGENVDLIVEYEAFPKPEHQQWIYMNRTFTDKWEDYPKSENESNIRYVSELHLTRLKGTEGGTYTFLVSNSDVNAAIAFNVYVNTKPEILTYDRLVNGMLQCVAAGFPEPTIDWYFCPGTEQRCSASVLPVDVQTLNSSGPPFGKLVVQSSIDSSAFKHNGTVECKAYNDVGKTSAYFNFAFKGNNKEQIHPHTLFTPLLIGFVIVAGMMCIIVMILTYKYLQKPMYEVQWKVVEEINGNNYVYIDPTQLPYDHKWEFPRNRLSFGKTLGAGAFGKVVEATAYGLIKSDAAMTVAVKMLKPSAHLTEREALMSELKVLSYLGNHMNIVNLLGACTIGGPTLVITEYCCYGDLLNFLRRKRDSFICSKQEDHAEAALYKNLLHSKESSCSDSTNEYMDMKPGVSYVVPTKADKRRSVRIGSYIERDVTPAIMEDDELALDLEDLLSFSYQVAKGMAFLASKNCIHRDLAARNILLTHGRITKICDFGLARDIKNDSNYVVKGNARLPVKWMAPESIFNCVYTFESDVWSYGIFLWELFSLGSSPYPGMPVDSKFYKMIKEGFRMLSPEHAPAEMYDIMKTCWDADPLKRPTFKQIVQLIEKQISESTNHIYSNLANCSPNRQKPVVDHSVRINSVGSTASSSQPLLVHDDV

`COc1nn(C)cc1-c1[nH]c2ncc3c(c2c1-c1ccc2c(cnn2C)c1)n(C1CCOCC1)c(=O)n3C` [Comparative Example A, reference compound]: in the data set with FLT3 [1], the “Selectivity FLT3/JH2 V617F” value is listed as “* (* refers to selectivity of ≤500-fold)”. The molecule also had a 50% inhibitory concentration (IC50) against FLT3 [2] of 250 to 1250 nM. In the data set on KIT [3], the “Selectivity KIT/JH2 V617F” value is “* (* refers to selectivity of ≤500-fold)”. The h-IntCL entry in data set [4] is reported as “‡ ‡ ‡ (‡ ‡ ‡ refers to h-IntCL of >1 L/h/kg)”.
`[2H]C([2H])([2H])n1ncc2cc(-c3c(-c4cn(C)nc4OC)[nH]c4ncc5c(c34)n(C3CCOCC3)c(=O)n5C)ccc21` [Comparative Example B, reference compound]: the “Selectivity FLT3/JH2 V617F” value in the data set on FLT3 [1] is on record as “* (* refers to selectivity of ≤500-fold)”. In addition, the values for the IC50 against FLT3 [2] and against KIT [5] were 250 to 1250 nM and 1250 to 2500 nM, respectively. Moreover, the “Selectivity KIT/JH2 V617F” value in the data set with KIT [3] is “** (** refers to selectivity of >500-fold to ≤1500-fold)”. For the same molecule, the h-IntCL entry in data set [4] is “‡ ‡ (‡ ‡ refers to h-IntCL of ≥0.7 L/h/kg to ≤1 L/h/kg)”.
As for `Cn1cc(-c2[nH]c3ncc4c(c3c2-c2ccc3c(cnn3C)c2)n([C@H]2CC[C@@H](CC#N)CC2)c(=O)n4C)cn1` [Comparative Example C, reference compound], the “Selectivity FLT3/JH2 V617F” value with FLT3 [1] is reported as “* (* refers to selectivity of ≤500-fold)”. For the same molecule, the IC50 was at most 25 nM against FLT3 [2] and 25 to 250 nM on KIT [5]. Also, the “Selectivity KIT/JH2 V617F” value in the data set on KIT [3] is “* (* refers to selectivity of ≤500-fold)”. Besides, the h-IntCL result in data set [4] is “‡ ‡ ‡ (‡ ‡ ‡ refers to h-IntCL of >1 L/h/kg)”.
As for `COc1ccc(-c2c(-c3cnn(Cc4ccncc4)c3)[nH]c3ncc4c(c23)n(C2CCCC2)c(=O)n4C)cc1` [Comparative Example D, reference compound], the h-IntCL entry in data set [4] was “‡ ‡ ‡ (‡ ‡ ‡ refers to h-IntCL of >1 L/h/kg)”.
Regarding `COc1nn(C)cc1-c1[nH]c2ncc3c(c2c1-c1ccc2c(cnn2C)c1)n([C@H]1CC[C@@H](CC#N)CC1)c(=O)n3C` [Comparative Example E, reference compound], the “Selectivity FLT3/JH2 V617F” value in the data set on FLT3 [1] is on record as “* (* refers to selectivity of ≤500-fold)”. Further, the “Selectivity KIT/JH2 V617F” value in the data set with KIT [3] is recorded as “*** (*** refers to selectivity of >1500-fold to ≤1750-fold)”. For the same molecule, the h-IntCL result in data set [4] is “‡ ‡ ‡ (‡ ‡ ‡ refers to h-IntCL of >1 L/h/kg)”.
